Data: US11325892B2, “Compounds and methods for treating cancer” (Mayo Foundation for Medical Education and Research, priority 2014, dated 2022)

What was measured:
[1] = test system: GADD45a, DDIT3, HERPUD1 transcripts in THJ29T, THJ16T, and KTC2; experiment: QPCR of UPR markers in ATC cells; type: cell-based; details: 10 μM, 24 hours; all cell lines; OA restored expression to control levels
Text: RNA isolation, preparation of cDNA, and QPCR performed as previously described (Tun H W, Marlow L A, von Roemeling C A, Cooper S J, Kreinest P, Wu K, Luxon B A, Sinha M, Anastasiadis P Z, Copland J A. Pathway signature and cellular differentiation in clear cell renal cell carcinoma. PLoS One. 2010; 5(5):e10696). TaqMan®CDFAM™ dye-labeled probes: GAPDH(Hs99999905_ml), POLR2A(Hs00172187_ml), SCD/(Hs01682761_HSPA5(Hs99999174_ml), GADD45A(Hs00169255_ml), DD/T3(Hs01090850_ml), and HERPUD/(Hs01124269_ml). Fold-change comparisons between normal vs. tumor, and DMSO vs. drug treated samples calculated using the […] method (Schmittgen T D, Livak K J. Analyzing real-time PCR data by the comparative C(T) method. Nat Protoc. 2008; 3 (6): 1101-8).
Exogenous application of MUFAs, such as oleic or palmitoleic acid, can rescue the proliferative defects generated by SCD1 inhibition as these are the primary products of SCD1 enzymatic activity (Roongta U V, Pabalan J G, Wang X, Ryseck R P, Fargnoli J, Henley B J, Yang W P, Zhu J, Madireddi M T, Lawrence R M, Wong T W, Rupnow B A. Cancer cell dependence on unsaturated fatty acids implicates stearoyl-CoA desaturase as a target for cancer therapy. Mol Cancer Res. 2011; 9(11):1551-61). THJ29T, THJ16T and KTC2 cells were treated with the EC50 dose of A939572 or MF-438 for 72H with or without 5 μM of oleic acid (OA). […]

[2] = biological target: T1, SCD1 (Homo sapiens, UniProt O00767); details: known inhibitors; cited from earlier work
T1 sequence (O00767 1-359): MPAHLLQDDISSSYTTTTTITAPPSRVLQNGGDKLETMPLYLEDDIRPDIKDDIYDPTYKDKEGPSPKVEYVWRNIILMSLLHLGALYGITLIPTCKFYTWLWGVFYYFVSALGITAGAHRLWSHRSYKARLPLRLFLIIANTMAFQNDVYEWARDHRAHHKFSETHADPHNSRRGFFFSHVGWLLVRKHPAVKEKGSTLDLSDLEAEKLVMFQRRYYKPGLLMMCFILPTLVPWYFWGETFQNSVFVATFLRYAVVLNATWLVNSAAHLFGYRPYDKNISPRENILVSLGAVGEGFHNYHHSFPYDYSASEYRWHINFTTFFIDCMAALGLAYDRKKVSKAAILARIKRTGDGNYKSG

[3] = test system: HK2, a transformed renal epithelial cell line; experiment: High-throughput proliferative screen, non-cancerous cells; type: cell-based
Experimental: Cells were seeded at 5,000 cells/well in clear-bottom 96-well plates in triplicate in Maintenance Media. Drug treatment was applied at a concentration of 1:1000 in reduced serum (3%) Maintenance Media. After 72 hours, cells were washed with PBS, and stored at −80° C. prior to analysis using CyQuant® Proliferation Analysis Kit (Invitrogen) as per manufacturers' protocol for relative fluorescence units. Alternatively, cells were plated 2×10^5/well in 12-well plates (Midwest Scientific) in triplicate prior to drug treatment. After 120 hour treatment, cell number was established using a Coulter Particle Counter (Beckman). Or, cells were plated (0.5 or 1×10^5/well) in 24-well plates (Midwest Scientific), 3×. After 72 hour treatment, cell number established using Coulter Particle Counter (Beckman). Oleic acid-albumin (Sigma Aldrich) was added to media at 5 μM, and was applied adjuvant to drug treatment. Drug stocks were prepared in DMSO (Sigma) at 1000×. EC50 dosing per cell line was calculated using CalcuSyn® analytical software.
In order to identify potential SCD1 inhibitors, a high-throughput proliferative-based screening method was used, with four ccRCC cell lines including A498, ACHN, Caki1, and Caki2. The SCD1 inhibitor MF-438 was included as a positive control. Known compounds ChemBL375265 (Liu G, Lynch J K, Freeman J, et al. Discovery of potent, selective, orally bioavailable stearoyl-CoA desaturase 1 inhibitors. Journal of medicinal chemistry. Jun. 28, 2007; 50(13): 3086-3100) (SetA.100) and SAR707 (Voss M D, Zoller G, Matter H, et al. Discovery and pharmacological characterization of SAR707 as novel and selective small molecule inhibitor of stearoyl-CoA desaturase (SCD1). European journal of pharmacology. May 5, 2013; 707(1-3): 140-146) (TC03.100) were included as single-blinded positive controls, and are indicated with an asterisk (*). […]

| Compound | transcription of UPR markers GADD45a, DDIT3, HERPUD1 [1] | IC50 [2] [µM] | reduction in cell proliferation [3] |
| --- | --- | --- | --- |
| CNC(=O)c1cccc(NC(=O)N2CCC(Oc3ccccc3Cl)CC2)c1 [A939572] | transcriptionally upregulated | 0.037 |  |
| Cc1nnc(-c2ccc(N3CCC(Oc4ccccc4C(F)(F)F)CC3)nn2)s1 [MF-438, 2-methyl-5-(6-(4-(2-(trifluoromethyl)phenoxy)piperidin-1-yl)pyridazin-3-yl)-1,3,4-thiadiazole] |  |  | approximately 20% |
